In brackets after ≈: the same amount, converted by molar mass. Like-named read-outs stand apart in the source and are kept apart here. Where a SMILES comes first, the peptide text is derived from it.
Tests used:
[1] = system: S. aureus USA300 LAC; experiment: microbe, parasite or virus in culture; assay type: cell-based, Staphylococcus aureus
Method: (§1) The following resistant bacterial clinical strains were used in this study: S. aureus USA300 LAC, S. epidermidis 1457, E. coli E423-17, P. aeruginosa E411-17, K. pneumoniae E406-17, and A. baumannii B28-16. While the S. aureus USA300 strain is methicillin-resistant, most of the Gram-negative bacteria contain extended-spectrum beta-lactamase and are resistant to beta-lactam antibiotics. Peptide activity against bacteria was tested using an established lab protocol (Mishra, et al. (2017) Acta Biomater., 49:316-328). In brief, a peptide concentration gradient with twofold dilution was made in the 96-well polystyrene microplate at 10 μL per well. Bacteria were grown to the exponential phase (i.e., optical density at 600 nm≈0.5), diluted to ˜10^5 CFU/mL in different percentages of MHB, TSB, or LB, and partitioned into the 96-well microplate at 90 μL per well. […] They were diluted with autoclaved distilled water to obtain different percentages. The microplates were incubated at 37° C. overnight and read on a ChroMate™ 4300 microplate reader at 600 nm (GMI, Ramsey, MN). The peptide concentration in the wells without bacterial growth is the MIC. As is the convention, MIC values were represented as ranges.
(§2) For pH effects on peptide activity, the pH of the medium was adjusted to a targeted pH for the autoclave and then remeasured at room temperature. For salt and serum effects on peptide activity, stock NaCl solution or human serum was added to the media.
(§3) Peptide activity against bacteria were tested using the CLSI standard procedure with minor modifications (Clinical and Laboratory Standards Institute (2018) Performance standards for antimicrobial susceptibility testing, 9th ed.; Mishra, et al. (2019) Proc. Natl. Acad. Sci., 116(27):13517-13522). In brief, a peptide concentration gradient with twofold dilution was made in the 96-well polystyrene microplate at 10 μL per well. Bacteria were grown to the exponential phase (i.e., optical density at 600 nm≈0.5), diluted to ˜10^5 CFU/mL in MHB, and partitioned into the 96-well microplate at 90 μL per well. The microplates were incubated at 37° C. overnight and read on a ChroMate® 4300 Microplate Reader at 600 nm (GMI, Ramsey, MN). The peptide concentration in the wells without bacterial growth is the minimal inhibitory concentration (MIC). As the convention, MIC values were represented as ranges.
(§4) For pH effects on peptide activity, the pH of the medium was adjusted to a targeted pH for autoclave and then remeasured at room temperature. For salt and serum effects on peptide activity, stock NaCl solution or human serum were added to the media.

[2] = system: E. coli E423-17; assay type: cell-based, Escherichia coli; conditions: E423-17
Method: as §1, §2, §3, §4

[3] = system: S. epidermidis 1457; experiment: microbe, parasite or virus in culture; assay type: cell-based, Staphylococcus epidermidis; conditions: read-out: Antimicrobial activity (MIC) S. epidermidis 1457
Method: as §1, §3

[4] = system: A. baumannii B28-16; assay type: cell-based, Acinetobacter baumannii; conditions: B28-16
Method: as §1, §3

[5] = system: P. aeruginosa E411-17; experiment: microbe, parasite or virus in culture; assay type: cell-based, Pseudomonas aeruginosa; conditions: E411-17
Method: as §1, §2, §3, §4

[6] = system: S. aureus USA300 LAC biofilms; experiment: Disruption of preformed biofilms in vitro (XTT); assay type: cell-based, Staphylococcus aureus; conditions: 24 h preformed biofilm
Method: (§5) Effects of Peptides on Established Biofilms in Vitro. Bacteria (S. aureus USA300 LAC and E. coli E423-17) were grown in rich TSB media overnight. A second inoculation was made the next day to reach an exponential phase (OD600˜0.4). Microtiter plates (96 wells, Corning Costar Cat no. 3595), after aliquoting with 180 μL of the culture to each well, were incubated at 37° C. for 24 hours to form biofilms in rich TSB. Media were aspirated post incubation, and the attached biofilms were washed with 1×PBS to remove the planktonic bacteria. […] Biofilms treated with water served as the positive control, while media without bacterial inoculation served as the negative control. Live cells in the biofilms were quantitated using XTT as described above. Absorbance was read at 450 nm (only media with XTT containing wells served as the blank) using a ChroMate™ microtiter plate reader. Percentage biofilm growth for the peptide was plotted by assuming 100% biofilm growth in bacterial control alone. The data were represented as mean±SD; plots were generated using GraphPad prism 7, where * indicates p<0.05, **p<0.01, and ***P<0.001, and ****p<0.0001 (one-way analyses of variance).
LL-37 is known to inhibit bacterial biofilms (Overhage, et al. (2008) Infect. Immun., 76:4176-4182). However, it was unable to disrupt preformed MRSA biofilms in rich media (Mishra, et al. (2016) ACS Med. Chem. Lett., 7:117-121). Next, it was determined whether the diluted MHB medium could be useful to detect biofilm-disrupting activity for LL-37 against MRSA. An established procedure (Mishra, et al. (2016) ACS Med. Chem. Lett., 7:117-121; Duplantier, et al. (2013) Front. Immunol., 4:143) was used wherein biofilms were formed and washed as usual to remove planktonic cells. The biofilms were then treated with peptides in 12.5% MHB for 24 hours. Finally, live cells were quantified with XTT (ATCC). FIG. 2 compares the levels of live cells of MRSA in the preformed biofilms after 24 hour treatment. […] Of note is a similar pattern for both peptides in 12.5% MHB treated at various concentrations.
Bacteria (S. aureus USA300 LAC or P. aeruginosa E411-17) were grown up in TSB media overnight. A second inoculation was made the next day to reach an exponential phase (OD600˜0.4). Microtiter plates (96 wells, Corning Costar Cat No. 3595), after aliquoting with 180 μL of the culture to each well, were incubated at 37° C. for 24 hours to form biofilms in rich TSB. Media were aspirated post incubation and the attached biofilms were washed with 1×PBS to remove the planktonic bacteria. […] Biofilms treated with water served as the positive control while media without bacterial inoculation served as the negative control. Live cells in the biofilms were quantitated using the XTT as described above. Absorbance was read at 450 nm (only media with XTT containing wells served as the blank) using a ChroMate® microtiter plate reader. Percentage biofilm growth (the plot legend is antibiofilm activity) for the peptides was plotted by assuming 100% biofilm growth in bacterial control alone. The data were represented as mean±SD, plots were generated using GraphPad prism 7, where * indicates p<0.05, ** p<0.01, and ***P<0.001, and ****p<0.0001 (one-way analyses of variance).

[7] = system: E. coli E423-17 biofilms; experiment: Disruption of preformed biofilms in vitro (XTT); assay type: cell-based, Escherichia coli; conditions: 24 h preformed biofilm
Method: as §5

[8] = system: MRSA USA300; experiment: microbe, parasite or virus in culture; assay type: cell-based, Staphylococcus aureus
Method: The experiment was conducted as described (Lakshmaiah et al. (2020) Proc. Natl. Acad. Sci., 117:19446-19454). Briefly, MRSA USA300 was grown to the exponential phase in MHB and diluted to OD600 0.001 (˜10^5 CFU/mL). Aliquots of 90 μL were added to a 96-well polystyrene microplate (Costar, Corning, NY) containing 10 μL of serially diluted LL-37mini, nafcillin, or daptomycin. After overnight incubation at 37° C., the plates were read at 600 nm using a ChroMate™ microplate reader (GMI, Ramsey, MN). Untreated bacterial culture and medium were included as untreated control and blank, respectively. The MIC is the lowest peptide concentration that inhibited the bacterial growth. The wells with sub-MIC levels of the peptides that retained growth approximately half the growth of the control wells were reinoculated in fresh MHB with sub-MIC concertation of peptides or antibiotics to attain exponential phase for MIC determination. In total, 17 passages of the bacterial cultures were conducted. A rapid increase in MIC is an indication of antibiotic resistance.

[9] = Effect of MHB dilution on antibacterial activity of a panel of antibiotics; assay type: cell-based; conditions: MHB from 100 to 12.5%
Method: FIGS. 2A-2D show biofilm disruption activity of human LL-37 (FIGS. 2A and 2B) and 17BIPHE2 (FIGS. 2C and 2D) against the 24 hour preformed biofilms of S. aureus USA300 LAC in different MHB media: 12.5% MHB (FIGS. 2A and 2C) and 100% MHB (FIGS. 2B and 2D). FIGS. 2E-2H show the treatment outcome of LL-37 (FIGS. 2E and 2F) and 17BIPHE2 (FIGS. 2G and 2H) against the 24-hour preformed biofilms of E. coli E423-17 in different MHB media: 12.5% MHB (FIGS. 2E and 2G) and 100% MHB (FIGS. 2F and 2H). […] Growth curves of S. aureus USA 300 LAC (FIGS. 2J-2K) and P. aeruginosa 152 (FIGS. 2L-2M) in 12.5%, 25%, 50% and 100% MHB or TSB medium (curves from bottom to top).
The effects of MHB dilution on the antimicrobial activity of a panel of antibiotics was also compared (FIG. 2I).

SMILES	MIC ([1]; USA300) [µM]	MIC ([1]; USA300, read-out: Antimicrobial activity (MIC) S. aureus USA300) [µM]	Antimicrobial activity (MIC) [2] [µM]	Antimicrobial activity (MIC) E. coli E423-17 [2] [µM]	MIC [3] [µM]	Antimicrobial activity (MIC) A. baumannii B28-16 [4] [µM]	Antimicrobial activity (MIC) P. aeruginosa E411-17 [5] [µM]	peptide concentration showing biofilm disruption ([6]; 12.5% MHB) [µM]	peptide concentration at which it started to work on biofilms ([6]; 100% MHB) [µM]	live bacteria remained in the biofilms ([6]; 100% MHB, treated at 16 μM for 24 h) [%]	effect on biofilms ([7]; 12.5% MHB)	effect on biofilms ([7]; 100% MHB)	MIC ([1]; Staphylococcus aureus, MRSA / USA300, MRSA in MHB, 20% serum, read-out: Antimicrobial activity (MIC)) [µM]	MIC ([1]; Staphylococcus aureus, MRSA / USA300, pH 6.3, MRSA in MHB, pH 6.3, read-out: Antimicrobial activity (MIC)) [µM]	MIC ([1]; Staphylococcus aureus, MRSA / USA300, pH 7.2, MRSA in MHB, pH 7.2, read-out: Antimicrobial activity (MIC)) [µM]	increase of MIC ([8]; 17 passages at sub-MIC) [fold]	MIC ([8]; Staphylococcus aureus, read-out: MIC after multiple passages) [µM]	change in MIC with dilution of MHB [9]
CC(C)C[C@H](NC(=O)[C@H](CC(N)=O)NC(=O)[C@H](CCCNC(=N)N)NC(=O)[C@@H](CC(C)C)NC(=O)[C@H](Cc1ccc(-c2ccccc2)cc1)NC(=O)[C@H](CC(=O)O)NC(=O)[C@H](CCCCN)NC(=O)[C@@H](CC(C)C)NC(=O)[C@H](CCCNC(=N)N)NC(=O)[C@H](CCC(N)=O)NC(=O)[C@@H](NC(=O)[C@@H](CC(C)C)NC(=O)[C@H](CCCNC(=N)N)NC(=O)[C@H](CCCCN)NC(=O)[C@H](Cc1ccc(-c2ccccc2)cc1)NC(=O)CN)C(C)C)C(=O)N[C@H](C(N)=O)C(C)C [17BIPHE2] (HELM PEPTIDE1{G.[O=C([C@H](Cc1ccc(-c2ccccc2)cc1)N[*:1])[*:2]].K.R.[dL].V.Q.R.[dL].K.D.[O=C([C@H](Cc1ccc(-c2ccccc2)cc1)N[*:1])[*:2]].[dL].R.N.L.V.[am]}$$$$V2.0; N-terminus and C-terminus assumed)	2 to 4	4 (≈ 9.02 µg/mL)	<2	4	8 (≈ 18 µg/mL)	4	4	16	8	~30	dose-dependent antibiofilm effect	subtle effect						
CCOc1ccc2ccccc2c1C(=O)N[C@@H]1C(=O)N2[C@@H]1SC(C)(C)[C@@H]2C(=O)O [Nafcillin]													16 to 32 (≈ 6.63 to 13.3 µg/mL)	16 (≈ 6.63 µg/mL)	4 to 8 (≈ 1.66 to 3.32 µg/mL)	32	128 (≈ 53.1 µg/mL)	small changes in MIC values

— patent publication US20250101062A1, “ANTIMICROBIAL PEPTIDES” (Board of Regents of the University of Nebraska, priority 2023, published 2025)
